Measurements: patent US9278925B2, “Substituted 3-(biphenyl-3-yl)-4-hydroxy-8-methoxy-1-azaspiro[4.5]dec-3-en-2-one” (BAYER INTELLECTUAL PROPERTY GMBH, priority 2011, dated 2016)
Where two headings read alike, the source gives them in different places.

Legend:
[1] = biological target: human serum albumin (HSA) (Homo sapiens (Human), UniProt P02768); assay: Protein binding to human serum albumin (HSA-Transil); conditions: buffer pH 7.4
Description: Assays for Determining Membrane Affinity logMA and Protein Binding to Human Serum Albumin (HSA): Determination of membrane affinity and protein binding to human serum albumin (HSA) was carried out via Transil technology (literature: A. Loidl-Stahlhofen, A. Eckert, T. Hartmann, M. […] Pharm Sci 90, 599-606 (2001)). Transil® (commercially available from Sovicell in Leipzig, Germany) are glass beads (diameter 10-12 μm) coated with a double-layer membrane of phosphatidylcholine (MA-Transil) or covalently attached human serum albumin (HSA-Transil). To determine the logMA and the protein binding constant to HSA, the commercially available TRANSIL Intestinal Absorption & HSA Binding Combined Assay Kit was used. This is a 96-well microtitre plate (96 well-MTP) which is filled with Transil and can be used to determine MA-Transil and HSA-Transil binding of in each case eight active compounds. […] Two wells serve as reference and are only filled with buffer pH 7.4. Five further wells contain MA-Transil in various increasing concentrations, the five remaining wells contain HSA-Transil in various increasing concentrations. To determine binding of an active compound to Transil, the supernatant of the wells with Transil was quantified against the reference solution without Transil via HPLC-MS coupling (HPLC-MS=high performance liquid chromatography/mass spectrometry). This is how the individual steps of the assay were carried out: From the internal substance store, the active compounds were delivered in a 96-well MTP. This plate is referred to as mother plate. […] Warfarin, whose membrane affinity and binding to HSA is known, serves to check whether the measurement is correct. […] Using a Hamilton pipetting robot Microlab STAR, the 96 active compounds from the daughter plate were divided onto 12 Transil plates in total. From each well of the daughter plate, 12 times 20 μl were removed. The concentration of each well of the Transil plate was 0.25 μmol/liter, which corresponds to a dilution of 1 to 10. […] The filled Transil plates were each resuspended for two minutes, then allowed to stand at room temperature for at least two minutes and then centrifuged at 600 rotations per minute for five minutes. The pipetting robot was then used to remove 20 μl of supernatant from each well of the Transil plate and to transfer these to a separate microtitre plate. […] Prior to quantification of the active compounds by HPLC-MS, an optimization has to be carried out for each active compound where by way of a single injection daughter ion and optimum electrical voltages are determined. […] This microtitre plate was measured by HPLC-MS using the software Discovery Quant Optimize from AB Sciex. The three pooled microtitre plates were measured by HPLC-MS using the software Discovery Quant Analyze from AB Sciex. • Sciex Triple Quad 5500 mass spectrometer (from AB Sciex) • PAL Autosampler DLW Option Software: Analyst 1.4 (from AB Sciex) • Discovery Quant Optimize (from AB Sciex) • Discovery Quant Analyze (from AB Sciex) Optimization: […] Column: Poroshell 120 SB-C18 2.7 μm 3×30 mm Injection volume: 2 μl Flow rate: 1 ml/min: […] Evaluation of the HPLC peaks was carried out using Discovery Quant Analyze. The results (logMA and binding constant to HSA Kd) were calculated using an Excel workbook provided by Sovicell.

[2] = Pharmacokinetic parameters in the rat (i.v. and intragastric); type: in vivo; conditions: for clearance / Vd / half-life: male, plasma; for clearance: read-out: CLplasma (converted); for Vd: read-out: Vss; for half-life / t½: terminal; for half-life: read-out: t½ (converted); for F: oral bioavailability
Description: Determination of the Pharmacokinetic Parameters of a Test Substance in the Rat and in the Dog For this, the test substances were applied in dissolved form both for intravenous, and for intragastric application, wherein compatible solubilizers such as PEG400 and/or ethanol were used in a compatible amount. […] Administration was as a bolus injection in the male rat and as an infusion in the female dog (15 min) At various time points after the bolus injection, and before and after the 15-minute infusion, blood samples of about 100-150 μl were removed via a catheter either from the jugular vein (rat) or from the saphenous vein (dog). Lithium-heparin was added as anticoagulant to the blood samples and they were stored in a refrigerator until required for further processing. After centrifugation of the samples for 15 min at 3000 rpm, an aliquot of 100 μl was taken from the supernatant (plasma) and was precipitated by adding 400 μl of cold ACN or methanol (absolute). The precipitated samples were frozen-out at […] overnight, then centrifuged again at 3000 rpm for 15 min, before 150 μl of the clear supernatant were removed to determine the concentration. The analysis was effected by means of an Agilent 1200 HPLC system with connected LCMS/MS detection. Calculation of the PK parameters (using PK calculation software, e.g. WinNonLin®): CLplasma: total plasma clearance of the test substance (in 1*kg/h); CLblood: total blood clearance of the test substance (in 1*kg/h), where (CLblood=CLplasma*Cp/Cb); Vss: apparent steady-state distribution volume (in 1/kg); t½: half-life within a specified interval (here: terminal t½, in h); AUCnorm: area under the plasma concentration time profile from time point zero extrapolated to infinity divided by the dose normalized for body weight (in kg*l/h); AUC(0-tn)norm: integrated area under the plasma concentration time profile from time point zero until the last time point at which a plasma concentration was measurable, divided by the dose normalized for body weight (in kg*l/h); Cmax: maximum concentration of the test substance in the plasma (in μg/l); Cmax,norm: maximum concentration of the test substance in the plasma divided by the dose normalized for body weight (in kg/l); Cb/Cp: ratio of the blood to plasma concentration distribution. […] At various time points after administration, blood samples of about 100-150 μl were removed via a catheter either from the jugular vein (rat) or from the saphenous vein (dog). Lithium-heparin was added as anticoagulant to the blood samples and they were stored in a refrigerator until required for further processing. After centrifugation of the samples for 15 min at 3000 rpm, an aliquot of 100 μl was taken from the supernatant (plasma) and was precipitated by adding 400 μl of cold ACN or methanol (absolute). The precipitated samples were frozen-out at −20° C. overnight, then centrifuged at 3000 rpm for 15 min, before 150 μl of the clear supernatant were removed to determine the concentration. The analysis was effected by means of an Agilent 1200 HPLC system with connected LCMS/MS detection. […]

human serum albumin (HSA), sequence (P02768 25-609): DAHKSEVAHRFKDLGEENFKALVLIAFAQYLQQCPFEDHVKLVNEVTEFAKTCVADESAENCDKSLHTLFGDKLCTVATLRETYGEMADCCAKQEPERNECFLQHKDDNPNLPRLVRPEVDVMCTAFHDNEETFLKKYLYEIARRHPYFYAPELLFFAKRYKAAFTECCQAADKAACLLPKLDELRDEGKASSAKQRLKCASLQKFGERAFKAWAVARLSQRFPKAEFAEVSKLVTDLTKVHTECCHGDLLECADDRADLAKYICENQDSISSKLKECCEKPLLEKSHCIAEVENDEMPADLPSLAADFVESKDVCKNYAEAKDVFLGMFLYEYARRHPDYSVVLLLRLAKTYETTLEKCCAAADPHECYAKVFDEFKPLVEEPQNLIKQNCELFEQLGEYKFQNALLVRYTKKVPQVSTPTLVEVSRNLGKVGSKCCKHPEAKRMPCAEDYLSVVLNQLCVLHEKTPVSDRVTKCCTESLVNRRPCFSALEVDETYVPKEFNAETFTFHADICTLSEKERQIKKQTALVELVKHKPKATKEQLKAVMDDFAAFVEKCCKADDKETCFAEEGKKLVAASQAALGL

## COC[C@]1(OC)CC[C@@]2(CC1)NC(=O)C(c1cc(-c3ccc(Cl)c(F)c3)ccc1C)=C2O [Example 1-4, (5r,8r)-3-(4′-Chloro-3′-fluoro-4-methylbiphenyl-3-yl)-4-hydroxy-8-methoxy-8-(methoxymethyl)-1-azaspiro[4.5]dec-3-en-2-one]
[1]
  Kd: 2.85 µM
[2]
  CLblood: 0.183 mL/min/kg
  half-life: 51 h
  F: 83%
[2]; intravenous
  clearance: 0.117 mL/min/kg
  Vd: 0.44 L/kg

## CO[C@]1(C(F)(F)F)CC[C@]2(CC1)NC(=O)C(c1cc(-c3ccc(Cl)cc3)ccc1C)=C2O [Example 1-1, (5r,8r)-3-(4′-Chloro-4-methylbiphenyl-3-yl)-4-hydroxy-8-methoxy-8-(trifluoromethyl)-1-azaspiro[4.5]dec-3-en-2-one]
[1]
  Kd: 1.73 µM
[2]
  CLblood: 0.183 mL/min/kg
  half-life: 103 h
  F: 163%
[2]; intravenous
  clearance: 0.1 mL/min/kg
  Vd: 0.85 L/kg

## COC[C@H]1CC[C@]2(CC1)NC(=O)C(c1cc(-c3ccc(Cl)cc3)ccc1C)=C2O [V.3-b, (5s,8s)-3-(4′-Chloro-4-methylbiphenyl-3-yl)-4-hydroxy-8-(methoxymethyl)-1-azaspiro[4.5]dec-3-en-2-one]
[1]
  Kd: 4.2 µM

## COC[C@H]1CC[C@]2(CC1)NC(=O)C(c1cc(-c3ccc(Cl)c(F)c3)ccc1C)=C2O [V.4-b, (5s,8s)-3-(4′-Chloro-3′-fluoro-4-methylbiphenyl-3-yl)-4-hydroxy-8-(methoxymethyl)-1-azaspiro[4.5]dec-3-en-2-one]
[1]
  Kd: 3.64 µM

## CO[C@]1(C(F)(F)F)CC[C@]2(CC1)NC(=O)C(c1cc(-c3ccc(Cl)c(F)c3)ccc1C)=C2O [Example 1-2, (5r,8r)-3-(4′-Chloro-3′-fluoro-4-methylbiphenyl-3-yl)-4-hydroxy-8-methoxy-8-(trifluoromethyl)-1-azaspiro[4.5]dec-3-en-2-one]
[1]
  Kd: 1.79 µM
[2]
  CLblood: 0.65 mL/min/kg
  half-life: 65 h
  F: 131%
[2]; intravenous
  clearance: 0.483 mL/min/kg
  Vd: 2.4 L/kg

## CO[C@]1(C)CC[C@]2(CC1)NC(=O)C(c1cc(-c3ccc(Cl)cc3)ccc1C)=C2O [Example V.1-a, (5r,8r)-3-(4′-Chloro-4-methylbiphenyl-3-yl)-4-hydroxy-8-methoxy-8-methyl-1-azaspiro[4.5]dec-3-en-2-one]
[1]
  Kd: 4.84 µM
[2]
  CLplasma: 0.15 mL/min/kg
  Vss: 0.3 L/kg
  F: 83%
  t½: 28 h

## Cc1ccc(-c2ccc(Cl)c(F)c2)cc1C1=C(O)[C@]2(CC[C@](O)(C(F)(F)F)CC2)NC1=O [V.2-c, (5r,8r)-3-(4′-Chloro-3′-fluoro-4-methylbiphenyl-3-yl)-4,8-dihydroxy-8-(trifluoromethyl)-1-azaspiro[4.5]dec-3-en-2-one]
[1]
  Kd: 1.38 µM

## Cc1ccc(-c2ccc(Cl)cc2)cc1C1=C(O)[C@]2(CC[C@](O)(C(F)(F)F)CC2)NC1=O [V.1-c, (5r,8r)-3-(4′-Chloro-4-methylbiphenyl-3-yl)-4,8-dihydroxy-8-(trifluoromethyl)-1-azaspiro[4.5]dec-3-en-2-one]
[1]
  Kd: 6.9 µM

## COC[C@]1(OC)CC[C@@]2(CC1)NC(=O)C(c1cc(-c3ccc(Cl)cc3)ccc1C)=C2O [Example 1-3, (5r,8r)-3-(4′-Chloro-4-methylbiphenyl-3-yl)-4-hydroxy-8-methoxy-8-(methoxymethyl)-1-azaspiro[4.5]dec-3-en-2-one]
[1]
  Kd: 4.8 µM
[2]
  CLblood: 0.083 mL/min/kg
  half-life: 79 h
  F: 68%
[2]; iv
  clearance: 0.0333 mL/min/kg
  Vd: 0.29 L/kg

## CO[C@]1(C)CC[C@]2(CC1)NC(=O)C(c1cc(-c3ccc(Cl)c(F)c3)ccc1C)=C2O [Example V.2-a, (5r,8r)-3-(4′-Chloro-3′-fluoro-4-methylbiphenyl-3-yl)-4-hydroxy-8-methoxy-8-methyl-1-azaspiro[4.5]dec-3-en-2-one]
[1]
  Kd: 2.8 µM
[2]
  CLplasma: 0.217 mL/min/kg
  Vss: 0.51 L/kg
  F: 71%
  t½: 33 h
